This note sets out measurements from patent US20100129343A1, “Use Of A Compound For Enhancing The Expression Of Membrane Proteins On The Cell Surface” (Axentis Pharma AG, priority 2004, published 2010).

Each structure is given as a SMILES string. “Also recorded” adds a separate entry of the source.

Common to all, as to assay type: cell-based
The test system of series [1] is CFTR-ΔF508. The series can be described thus: Immunoblot for GFP-tagged CFTR-ΔF508 expressed in HEK293 cells. The conditions noted are these: 16 h, endoglycosidase H treated extract. On the procedure: HEK293 cells (1*10^6 cells) were transfected with plasmids encoding CFTR or CFTR-ΔF508 (GFP-tagged) and/or co-transfected with effector plasmids. After 16h, the cells were treated with the varying concentrations of compounds. After 24h, the cells were harvested in phosphate-buffered saline, lysed by a freeze-thaw cycle and homogenized by sonication. The homogenate was resuspended in reducing Laemmli sample buffer (50 mM Tris.HCl, pH 6.8, 20% glycerol, 0.1% bromphenol blue, 2% SDS and 20 mM dithiothreitol); aliquots (15% of the original culture) were resolved on a denaturing polyacrylamide gel (monomer concentration in the stacking gel and in the running gel 4 and 8% respectively) and electrophoretically transferred to a nitrocellulose membrane. Immunodetection was done with an antiserum directed against GFP as the primary antibody and an anti-rabbit IgG coupled to horseradish peroxidase as the secondary antibody.
In a first example, Membranes from transfected cells were prepared and immunoblotted for GFP-tagged CFTR or CFTR-ΔF508, respectively (by using an antibody directed against the fluorescent protein).
The membrane extract was also treated endoglycosidase H. The rationale for this experiment is as follows: membrane proteins are core glycosylated in the endoplasmatic reticulum. Core gylcosylation is sensitive to endoglycosidase H. If the protein has reached the Golgi (and then trafficked to the plasma membrane), it acquires additional sugar moieties and becomes resistant to endoglycosidase H. It is evident from lane 3 in FIG. 6 that endoglycosidase H treatment reduces the apparent size of CFTR; thus, the bulk of the protein is still in the ER. The following lanes examine the expression of CFTR-ΔF508 (all extracts were treated with endoglycosidase H): lane 4 is the control, that is cells expressing CFTR-ΔF508; in lanes 5, 6, 7 and 8 cells expressing CFTR-ΔF508 were treated overnight (i.e. for 16 h) with 100 nM MG132, 20 μM kifunensine, 1 μM and 100 nM bortezomib, respectively.

The subject of series [2] is CFTR-ΔF508. The series can be described thus: FACS monitoring of GFP-tagged CFTR-ΔF508 expression in HEK293 cells. The method, then: (§1) Cultured HEK293 cells were transfected with plasmids encoding CFTR or CFTR-ΔF508 (GFP-tagged) and/or co-transfected with plasmids encoding USP4 (or an appropriate control plasmid) by using the CaPO4-precipitation method. Sixteen hours after transfection the cells were treated with varying concentrations of compounds. At a specific time point (here 24 h) the cells are trypsinized, fixed in ethanol, permeabilized and stained with propidium iodide (PI). The stained cells are subjected to FACS analysis
Because CFTR is tagged with a fluorescent protein, expression in individual cells can be monitored by fluorescence activated cell sorting (FACS). By contrast with fluorescence microscopy (where individual cells are picked), FACS allows to survey the entire cell population. In addition, FACS has the advantage that it allows for reasonable sample throughput; finally, automation and scale-up is readily possible. […]
The original data set is shown on the right hand side of the figures, respectively (see e.g. FIG. 7c): the x-axis is the propidium iodide fluorescence (note that the scale is linear). The y-axis is the GFP-fluorescence (=fluorescence associated with CFTR; note that the scale is logarithmic) and each dot corresponds to a cell. […]

The test system of a further series is HEK293 cells. The series can be described thus: FACS propidium iodide staining: cell cycle distribution / apoptosis of HEK293 cells. The method, then: as §1
Transiently transfected HEK293 cells were fixed in ethanol 24 h after transfection as mentioned above and then stained with propidium iodide to label the DNA: the rationale was to examine the distribution of cells in the cell cycle (=to see if the expression of CFTR or of CFTR-ΔF508 was toxic or if the compounds employed killed the cells/drove them into apoptosis).
One can plot the cell counts against the propidium iodide fluorescence of the transfected cells (such as shown in, for example, FIG. 7b): This gives a peak of cells (denoted by M1) that have a 2n content of DNA (G1-cells), a shoulder of cells that have a DNA content of larger than 2n (denoted by M3 and representing cells that are in S-phase) and a second peak of cells that have a DNA content of 4n (denoted by M2 and representing cells in G2 and M-phase).

A further series addresses T1, A2A-receptor (Rattus norvegicus, UniProt P30543).
T1 construct: PC12 cells (that endogenously express the A2A-receptor); endogenous in cells; host or cells: PC12 (rat pheochromocytoma), membranes
The series can be described thus: [3H]ZM241385 saturation binding to membranes from PC12 cells (endogenous A2A-receptor). The conditions noted are these: 100 μM chloroquine for 3h. The method, then:
Membranes were prepared from PC12 cells, which had been incubated in the presence or in the absence of 50 μM MG132 or 100 μM chloroquine for 3h, and were incubated in buffer containing the indicated concentrations of [^3H]ZM241385 in the presence of 100 μM GTPγS.
Membranes (100 μg/assay) that had been prepared from PC12 cells or HEK293 cells transiently transfected with the appropriate plasmids were incubated in a final volume of 0.3 ml containing 50 mM Tris.HCl (pH 8.0), 1 mM EDTA, 5 mM MgCl2, 8 μg/ml adenosine deaminase and concentrations of [^3H]ZM241385 (specific activity ˜20 Ci/mmol) covering the range of 0.2 to 20 nM in the presence of 100 μM GTPγS (Klinger et al., 2002). After 60 min at room temperature, the reaction was terminated by rapid filtration over glass fiber filters. Nonspecific binding was determined in the presence of 10 μM XAC and amounted to 40% at the highest concentration of [^3H]ZM241385. The data points were fitted by non-linear regression to the equation describing a rectangular hyperbola. Assays were performed in duplicate.

T1 sequence (P30543 whole entry): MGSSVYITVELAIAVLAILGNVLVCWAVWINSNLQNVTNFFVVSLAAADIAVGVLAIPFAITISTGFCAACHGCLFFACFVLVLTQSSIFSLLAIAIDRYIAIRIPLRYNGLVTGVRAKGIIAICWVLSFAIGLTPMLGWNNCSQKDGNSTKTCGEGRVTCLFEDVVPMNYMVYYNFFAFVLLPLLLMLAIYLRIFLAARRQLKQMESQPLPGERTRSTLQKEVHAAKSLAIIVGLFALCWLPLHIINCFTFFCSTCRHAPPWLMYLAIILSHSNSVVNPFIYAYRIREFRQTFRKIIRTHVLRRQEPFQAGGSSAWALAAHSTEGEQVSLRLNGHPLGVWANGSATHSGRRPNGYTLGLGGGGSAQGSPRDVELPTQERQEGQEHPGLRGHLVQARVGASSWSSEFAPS

Turning to `CC(C)C[C@H](NC(=O)[C@H](Cc1ccccc1)NC(=O)c1cnccn1)B(O)O` [Bortezomib, N-(2-pyrazine)carbonyl-L-phenylalanine-L-leucine-boronic acid], the “accumulation of CFTR-ΔF508 (intensity of staining vs control lane)” value with CFTR-ΔF508 [1] (100 nM bortezomib) is on record as “led to the accumulation of CFTR-ΔF508; also recorded: more effective than 1 μM bortezomib”; in the series on CFTR-ΔF508 [1] (1 μM bortezomib) it was “led to the accumulation of CFTR-ΔF508”. The CFTR-ΔF508-associated fluorescence entry with CFTR-ΔF508 [2] (10 nM bortezomib) is recorded as “expression of CFTR is increased; also recorded: substantially increases the level of CFTR-ΔF508”; in the series on CFTR-ΔF508 [2] (100 nM bortezomib), “expression of CFTR is increased”. The cell cycle distribution result with HEK293 cells (10 nM bortezomib, CFTR-ΔF508 expressing cells) is listed as “essentially the same as the one shown in control cells”. Also, the “peak of the G1-cells (M1)” value with HEK293 cells (100 nM Bortezomib, CFTR-ΔF508 expressing cells) was “greatly reduced”; with HEK293 cells (1 μM Bortezomib, CFTR-ΔF508 expressing cells), “greatly reduced”. For the same compound, the “number of cells with low propidium iodide fluorescence (apoptotic)” value with HEK293 cells (100 nM bortezomib) and in the series on HEK293 cells (1 μM Bortezomib) was “number of cells with low propidium iodide fluorescence increases” each time. In the series on HEK293 cells (within the therapeutic window (Bortezomib), very small dosage (MG132)), the “cell mortality / apoptosis, general statement” value is “no increased cell mortality is observed”.
Turning to `CCN(CC)CCCC(C)Nc1ccnc2cc(Cl)ccc12` (stereo not drawn) [choloroquine, chloroquine], the A2A-receptor levels result at A2A-receptor was “did not affect the A2A-receptor levels”.
For the compound `O=C1N[C@@H]2[C@@H](O)[C@@H](O)[C@H](O)[C@@H](CO)N2C1=O` [kifunensine], the “accumulation of CFTR-ΔF508 (intensity of staining vs control lane)” value in the series on CFTR-ΔF508 [1] (20 μM kifunensine) is recorded as “led to the accumulation of CFTR-ΔF508”.
